{"source": "patent US20160184404A1", "about": "“NOVEL HEMOGLOBIN-DERIVED PEPTIDE BASED PHARMACEUTICAL COMPOSITIONS” (CLINIQUE LA PRAIRIE, priority 2014, published 2016)", "key": {"Human MNC": {"test_system": "Human MNC", "assay": "Stimulation of human MNC with MPLA in the presence of Hb-derived peptides, cytokine ELISA of supernatant", "type": "cell-based", "settings": "for synergistic activity with MPLA, IL-6 release / synergistic activity in enhancing the MPLA-induced cytokine (IL-8) release, screen of native Hbγ1-peptide library: 20 h; for synergistic activity in enhancing the MPLA-induced cytokine (IL-8) release, screen of native Hbγ1-peptide library: MPLA 10 μg/ml, peptide 10 μM, FIG. 4", "protocol": "Human mononuclear cells (MNC) were isolated from peripheral blood of healthy donors by density-gradient centrifugation on Ficoll gradient media (PAA Laboratories GmbH, Pasching, Austria). The cells were suspended and cultured in RPMI-1640 medium, containing […]. 50 μl of a peptide solution were incubated with 50 μl of a MPLA solution in a U-form 96 well micro cell culture plate #3799 (Corning Costar GmbH, Bodenheim, Germany) for 15 min at 37° C. After this incubation period 20 μl of heat-inactivated (56° C./30 min) human serum or RPMI-1640 medium were added. Finally, 80 μl of a MNC cell suspension was added to give a final concentration of 1 to 2×10^6 cells for culture in the absence of human serum or 1×10^6 cells for culture in the presence of serum. After a culture time of 20 h the cells were spun down and the culture supernatants were harvested. The cytokine concentrations in the supernatants were determined by matched antibody pairs for ELISA obtained from Invitrogen GmbH, Darmstadt (Germany). Mostly, each value represents the mean±SD of duplicate culture. In FIG. 3 the mean of three independent experiments is given, each of these three independent experiments having duplicate cultures."}, "Purified human monocytes": {"test_system": "Purified human monocytes", "assay": "Stimulation of purified human monocytes with MPLA in the presence of Hbγ1-peptides, IL-6 ELISA", "type": "cell-based", "settings": "MPLA 1 μg/ml; peptide 1, 3, 10 μM; FIG. 9", "protocol": "FIG. 9: Synergistic effect of Hbg-23 and Hbg-32 peptide on stimulation of human monocytes with MPLA. Purified human monocytes (>95%) were stimulated with MPLA (1 μg/ml) in the presence or absence of the Hbγ1-peptides Hbg-23 and Hbg-32-107 (1, 3 and 10 μM). Control cultures were kept without MPLA. After a culture period of 20 h, the IL-6 concentration in the supernatant was determined by ELISA. Each value represents the mean±SD of duplicate cultures.\nHuman mononuclear cells (MNC) were isolated from peripheral blood of healthy donors by density-gradient centrifugation on Ficoll gradient media (PAA Laboratories GmbH, Pasching, Austria). The cells were suspended and cultured in RPMI-1640 medium, containing […]. 50 μl of a peptide solution were incubated with 50 μl of a MPLA solution in a U-form 96 well micro cell culture plate #3799 (Corning Costar GmbH, Bodenheim, Germany) for 15 min at 37° C. After this incubation period 20 μl of heat-inactivated (56° C./30 min) human serum or RPMI-1640 medium were added. […] The cytokine concentrations in the supernatants were determined by matched antibody pairs for ELISA obtained from Invitrogen GmbH, Darmstadt (Germany). […]"}, "[1]": {"assay": "Freeze-fracture transmission electron microscopy of MPLA", "type": "physicochemical", "settings": "MPLA 1 mM alone or with equimolar peptide; FIG. 25", "protocol": "A small amount of the samples was sandwiched between two copper profiles and frozen by plunging the sandwiches immediately into liquefied ethane-propane-mixture cooled in liquid nitrogen. Fracturing and replication were performed at −150° C. in a BAF 400T freeze-fracture device (BAL-TEC, Balzers, Liechtenstein) equipped with electron guns and a film sheet thickness monitor. For replication Pt(C) was evaporated under an angle of 35° and (C) under 90°. The replicas were placed on copper grids and cleaned with a chloroform-methanol mixture."}, "[2]": {"assay": "Atomic force microscopy of MPLA dispersions", "type": "physicochemical", "settings": "MPLA 25 μM on mica, alone or with equimolar peptide; after one hour", "protocol": "Atomic force microscopy (AFM) allows a direct look onto the morphology of lipid aggregates on a molecular scale under almost physiological conditions. This allows obtaining depth profiles of MPLA dispersions down to a resolution limit of lower than 1 nm. For the analysis, MPLA dispersions were prepared at a concentration of 25 μM in physiological saline in the absence and presence of an equimolar content of Hbg-32."}, "[3]": {"assay": "Small angle X-ray scattering (SAXS) of MPLA aggregates", "type": "physicochemical", "protocol": "SAXS measurements were performed at the European Molecular Biology Laboratory (EMBL) outstation at the Hamburg synchrotron radiation facility HASYLAB using the camera X33. Diffraction patterns in the range of the scattering vector 0.1<s<1.0 nm^−1 (s=2 sin θ/λ, 2θ scattering angle and A the wavelength=0.15 nm) were recorded at 40° C. with exposure times of 1 min using an image plate detector with online readout (MAR345, MarResearch, Norderstedt/Germany). The lipid concentration was in all cases 20 mM. The s-axis was calibrated with Ag-behenate, which has a periodicity of […]. The diffraction patterns were evaluated as described previously (Howe et al. (2008a)), assigning the spacing ratios of the main scattering maxima to defined three-dimensional structures. The lamellar and cubic structures are the most relevant here. The following features characterize the supramolecular structure: • (1) lamellar: The reflections are grouped in equidistant ratios, i.e., 1, ½, ⅓, ¼, etc. of the • lamellar repeat distance dλ; • (2) cubic: The different space groups of these non-lamellar three-dimensional structures differ in the ratio of their spacings. The relation between reciprocal spacing shkl=1/dhkl and lattice constant a is\n[…] • (hkl=Miller indices of the corresponding set of plane)."}, "human memory T-cell": {"test_system": "human memory T-cell", "assay": "Stimulation of memory T-cells in human MNC with recall antigens PPD and TT, 3H-thymidine incorporation", "type": "cell-based", "settings": "FIG. 20", "protocol": "For stimulation of T-lymphocytes, human MNC were cultured in RPMI-1640 medium, containing […], and 10% of inactivated human serum at a concentration of 0.5 to 1.0×10^6 cells per ml in flat-bottom 96-well tissue culture plates. To investigate the adjuvant effect of MPLA and Hbg-peptides, the recall antigens tetanus toxoid (TT) and purified protein derivatives of M. tuberculosis (PPD) (both from Statens Serum Institute, Copenhagen, Danmark) were used. After 6 days of culture, cells were labeled with ^3H-Thymidine (3HTdR (2 Ci/mmol, 0.2 μCi/culture)) and after an additional day of culture the cells were harvested on glass-filter mats for measurement of incorporated radioactivity into the DNA. The results are expressed as mean±SD of duplicate cultures.\nThere is a close interaction between the innate immune system, as presented by e.g. monocytes and dendritic cells, and the adaptive immune system, as presented by T-lymphocytes and B-lymphocytes. Monocytes and dendritic cells present antigenic fragments to the cells of the adaptive immune system to initiate a specific immune reaction. In addition, they support the strength and polarization of the immune response by means of the release of cytokines. […]"}, "[4]": {"settings": "MPLA 3 μg/ml, peptide 1, 3, 10 μM, FIG. 7, 10, 12, 15, 16, 29"}, "[5]": {"settings": "MPLA 1 μg/ml, peptide 0.1-10 μM, FIG. 5, 19"}}, "data": [{"substance": "CVLAHHFGKEFTPPVQAAYQKVVAGVANAL (Hbb-67)", "values": [{"measurement": "synergistic activity with MPLA, IL-6 release", "setting": "Human MNC; [4]", "result": "synergistically active in a similar range as Hbg-35-146m"}]}, {"substance": "VTLAAHLPAEFTPAVHASLDKFLASVSTVL (Hba-66)", "values": [{"measurement": "synergistic activity with MPLA, IL-6 release", "setting": "Human MNC; [4]", "result": "only a minimal synergistic activity"}]}, {"substance": "Hbg-23: native overlapping 15 or 16 amino acid peptide of human Hbγ1, printed Hbγ11-125 (VTVLAIHFGKEFTPE; Hbg-23)", "values": [{"measurement": "synergistic activity with MPLA, IL-6 release", "setting": "Human MNC; [5]", "result": "strong synergistic activity"}, {"measurement": "synergistic effect with MPLA in the absence and presence of human serum, IL-6 release", "setting": "Human MNC; MPLA 3 μg/ml, peptide 1, 3, 10 μM, with or without 10% human serum, FIG. 8, 14", "result": "synergistic effects in the absence as well as in the presence of human serum"}, {"measurement": "synergistic activity in enhancing the MPLA-induced cytokine (IL-8) release, screen of native Hbγ1-peptide library", "setting": "Human MNC", "result": "best hits"}, {"measurement": "synergistic activity in enhancing the MPLA-induced cytokine (IL-8) release, screen of native Hbγ1-peptide library", "setting": "Human MNC; listed as No. 23", "result": "profound synergistic activities"}, {"measurement": "synergistic effect with MPLA during induction of IL-release, second batch of peptide", "setting": "Human MNC; second batch, data not shown", "result": "no synergistic effect"}, {"measurement": "synergism with MPLA in stimulating purified human monocytes, IL-6 release", "setting": "Purified human monocytes", "result": "synergize with MPLA"}]}, {"substance": "Hbg-51: Hbg-35 alanine-scan peptide with Phe122/Ala-replacement (TVLAIHFGKEATPEVQASWQKMVTAVASAL; Hbg-51)", "values": [{"measurement": "effect of alanine replacement on the synergistic activity of Hbg-35 with MPLA, IL-6 release", "setting": "Human MNC; alanine-scan, MPLA 3 μg/ml, peptide 3 μM, FIG. 18", "result": "enhanced the synergistic activity of Hbg-35"}]}, {"substance": "Hbg-24: native overlapping 15 or 16 amino acid peptide of human Hbγ1, Hbγ116-130 (IHFGKEFTPEVQASW; Hbg-24)", "values": [{"measurement": "synergistic activity with MPLA, IL-6 release", "setting": "Human MNC; [5]", "result": "strong synergistic activity"}, {"measurement": "synergistic activity in enhancing the MPLA-induced cytokine (IL-8) release, screen of native Hbγ1-peptide library", "setting": "Human MNC", "result": "best hits"}, {"measurement": "synergistic activity in enhancing the MPLA-induced cytokine (IL-8) release, screen of native Hbγ1-peptide library", "setting": "Human MNC; listed as No. 24", "result": "profound synergistic activities"}]}, {"substance": "TPEVQASWQKMVTAVA [Hbg-69]", "values": [{"measurement": "synergistic activity with MPLA, IL-6 release", "setting": "Human MNC; [5]", "result": "only a minute synergistic activity or no activity at all"}]}, {"substance": "Hbg-25: peptide of the native Hbγ1-peptide library that includes F122, E125 and V126 (EFTPEVQASWQKMVT; Hbg-25)", "values": [{"measurement": "synergistic activity in enhancing the MPLA-induced cytokine (IL-8) release, screen of native Hbγ1-peptide library", "setting": "Human MNC", "result": "inactive"}]}, {"substance": "Monophosphoryl lipid A [MPLA]", "values": [{"measurement": "morphology of MPLA aggregates (freeze-fracture electron microscopy)", "setting": "[1]", "result": "very densely and lamellar packed aggregates with large sizes in the micrometer range"}, {"measurement": "morphology of MPLA aggregates (AFM)", "setting": "[2]", "result": "densely packed multi-lamellar aggregates with some hundred nm extension in z-direction"}, {"measurement": "aggregate structure of MPLA (SAXS)", "setting": "[3]; MPLA alone or in the presence of peptide, 40° C., FIG. 22", "result": "largely multi-lamellar"}, {"measurement": "sharp reflection (multi-lamellar periodicity), SAXS", "setting": "[3]; MPLA alone, FIG. 22A", "result": 4.11, "unit": "nm"}, {"measurement": "adjuvant activity on the stimulation of T-memory cells with recall antigens", "setting": "human memory T-cell; PPD 1 μg/ml or TT 0.1 LF/ml, MPLA 10-1000 ng/ml", "result": "very effective adjuvant activity"}, {"measurement": "MPLA concentration sufficient to exert a nearly optimal adjuvant effect", "setting": "human memory T-cell; PPD or TT induced proliferation", "result": "≤ 10", "unit": "ng/mL"}]}, {"substance": "VLAIHFGKEFTPEVQASW [Hbg-68, Hbγ1[113-130], common part structure of peptides Hbg-32 to Hbg-39]", "values": [{"measurement": "synergistic activity with MPLA, IL-6 release", "setting": "Human MNC; [5]", "result": "only a minute synergistic activity or no activity at all"}]}]}
